How the values were obtained:
Type in all cases: in vivo
Idaho pinto bean plants = experiment: Axillary Bud Growth Inhibition Of Pinto Bean Plants; conditions: 288 h; 625-ppm; twelve days after treatment; vs untreated check; read-out: Bud Inhib (percent inhibition of axillary bud growth)
Description: Compounds of this invention were tested to determine their plant-growth-retarding effects on axillary bud growth of pinto beans.
Idaho pinto bean plants (13-16 days old) having monofoliate leaves fully developed and first trifoliates beginning to unfold were used. All growth 5 mm above the monofoliate leaf node was removed with forceps 1 to 4 hours prior to treatment with the test compounds. Four plants were used for each test compound.
A 625-ppm solution of the test compound in a 2% aqueous acetone solution containing a small amount of a nonionic surfactant was sprayed onto the pinto bean plants until runoff. After drying, the treated plants were transferred to a greenhouse maintained at 20°-23° C. and watered at regular intervals. Twelve days after treatment, the bud growth at the axil of the monofoliate leaf was determined and expressed as percent inhibition of axillary bud growth as compared to untreated check plants.

[1] = system: celery late blight organism Septoria apii; experiment: whole plant or invertebrate; conditions: 336 h, read-out: Fungicidal Activity Control %, Celery L.B.
[2] = system: grape downy mildew organism Plasmopara viticola; experiment: Grape Downy Mildew control (detached grape leaves); conditions: vs untreated check, read-out: Fungicidal Activity Control %, Grape D.M.
[3] = system: Tomato Late Blight organism Phytophthora infestans; experiment: whole plant or invertebrate; conditions: 168 h, read-out: Fungicidal Activity Control %, Tomato L.B.
[4] = system: Pigweed (Amaranthus retraflexus); experiment: Post-emergent herbicidal test; conditions: 504 h, post-emergence, 33 micrograms/cm^2, 3 weeks, 0-to-100 scale
[5] = system: Mustard (Brassica arvensis); experiment: Post-emergent herbicidal test; conditions: 504 h, post-emergence, 33 micrograms/cm^2, 3 weeks, 0-to-100 scale
[6] = system: Lambsquarter (Chenopodium album); experiment: Post-emergent herbicidal test; conditions: 504 h, post-emergence, 33 micrograms/cm^2, 3 weeks, 0-to-100 scale, read-out: Herbicidal Activity Post-Emergence % Control, L'Qtr.
[7] = system: Watergrass (Echinochloa crusgalli); experiment: Post-emergent herbicidal test; conditions: Echinochloa crus-galli, 504 h, post-emergence, 33 micrograms/cm^2, 3 weeks, 0-to-100 scale, read-out: Herbicidal Activity Post-Emergence % Control, Water Grass
Wild Oats (Avena fatura) [8] = experiment: Post-emergent herbicidal test; conditions: 504 h, post-emergence, 33 micrograms/cm^2, 3 weeks, 0-to-100 scale
Soybean [9] = experiment: Post-emergent herbicidal test; conditions: Glycine max, 504 h, post-emergence, 33 micrograms/cm^2, 3 weeks, 0-to-100 scale, read-out: Herbicidal Activity Post-Emergence % Control, Soybean
[10] = system: Crabgrass (Digitaria sanguinalis); experiment: Post-emergent herbicidal test; conditions: 504 h, post-emergence, 33 micrograms/cm^2, 3 weeks, 0-to-100 scale, read-out: Herbicidal Activity Post-Emergence % Control, Crab Grass
[11] = system: Bean Powdery Mildew organism Erisiphe polygoni; experiment: Bean Powdery Mildew control; conditions: 240 h, 10 days, vs untreated check, read-out: Fungicidal Activity Control %, Bean P.M.
Description: The compounds of the invention were tested for the control of the Bean Powdery Mildew organism […] polygoni. Seedling bean plants were sprayed with a 250 ppm solution of the test compound in acetone, water and a nonionic emulsifier. The sprayed plants were then inoculated 1 day later with organism. […] The percent disease control provided by a given test compound was based on the percent disease reduction relative to the untreated check plants.

Cotton plants = experiment: Cotton Regrowth; conditions: Gossypium hirsutum, 13 to 18 days, 100% is total inhibition, read-out: Regrowth (percent inhibition of cotton regrowth)
Description: Compounds of this invention were tested to determine their plant-growth regulating effects on cotton leaf regrowth.
Cotton plants, 4 to 5 weeks old, containing 4 true leaves above the cotyledonary leaves are employed. Growth beyond the second true leaf was removed. Within 24 hours the plants are sprayed with a 2000 ppm solution of the test compound. After spraying, the plants are transferred to a greenhouse maintained at 85° F. (±5° F.) and incubated there for from 13 to 18 days. The plants during this period are sub-irrigated in 1/4" of water.
After this period, regrowth is determined as a percent inhibition of auxiliary bud regrowth--100% is total inhibition while 0% is no inhibition.

[12] = system: Pigweed (Amaranthus retraflexus); experiment: Pre-emergent herbicidal test; conditions: 504 h, pre-emergence, 33 micrograms/cm^2, 3 weeks, 0-to-100 scale
Description: (§1) An acetone solution of the test compound was prepared by mixing 750 mg of the compound, 220 mg of a nonionic surfactant and 25 ml of acetone. This solution was added to approximately 125 ml of water containing 156 mg of surfactant.
(§2) Seeds of the test vegetation were planted in a pot of […] and the test solution was sprayed uniformly onto the soil surface at a dose of 33 micrograms/cm^2. The pot was watered and placed in a greenhouse. […] At the end of this period, the herbicidal effectiveness of the compound was rated based on the physiological observations. A 0-to-100 scale was used, 0 representing no phytotoxicity, 100 representing complete kill.

[13] = system: Mustard (Brassica arvensis); experiment: Pre-emergent herbicidal test; conditions: 504 h, pre-emergence, 33 micrograms/cm^2, 3 weeks, 0-to-100 scale
Description: as §1, §2

[14] = system: Lambsquarter (Chenopodium album); experiment: Pre-emergent herbicidal test; conditions: 504 h, pre-emergence, 33 micrograms/cm^2, 3 weeks, 0-to-100 scale, read-out: Herbicidal Activity Pre-Emergence % Control, L'Qtr.
Description: as §1, §2

[15] = system: Watergrass (Echinochloa crusgalli); experiment: Pre-emergent herbicidal test; conditions: Echinochloa crus-galli, 504 h; pre-emergence; 33 micrograms/cm^2; 3 weeks; 0-to-100 scale; read-out: Herbicidal Activity Pre-Emergence % Control, Water Grass
Description: as §1, §2

Wild Oats (Avena fatura) [16] = experiment: Pre-emergent herbicidal test; conditions: 504 h, pre-emergence, 33 micrograms/cm^2, 3 weeks, 0-to-100 scale
Description: as §1, §2

Soybean [17] = experiment: Pre-emergent herbicidal test; conditions: Glycine max, 504 h; pre-emergence; 33 micrograms/cm^2; 3 weeks; 0-to-100 scale; read-out: Herbicidal Activity Pre-Emergence % Control, Soybean
Description: as §1, §2

[18] = system: Crabgrass (Digitaria sanguinalis); experiment: Pre-emergent herbicidal test; conditions: 504 h, pre-emergence, 33 micrograms/cm^2, 3 weeks, 0-to-100 scale, read-out: Herbicidal Activity Pre-Emergence % Control, Crab Grass
Description: as §1, §2

[19] = system: tomato Early Blight organism, Alternaria solani conidia; experiment: Tomato Early Blight control; conditions: 288 h, about 12 days in greenhouse, vs untreated check, read-out: Fungicidal Activity Control %, Tomato E.B.
Description: Compounds of the invention were tested for the control of the tomato Early Blight organism, Alternaria solani conidia. Tomato (variety Bonny Best) seedlings of 6 to 7 weeks old were used. The tomato plants were sprayed with a 250 ppm solution of the test compound in an acetone-and-water solution containing a small amount of a nonionic emulsifier. The sprayed plants were inoculated one day later with the organism, placed in the environmental chamber and incubated at […] and 100% relative humidity for 24 hours. Following the incubation, the plants were maintained in a greenhouse for about 12 days. Percent diseases control was based on the percent disease development on untreated check plants.

Compound | pest or weed control at 625 µg/mL (Idaho pinto bean plants) [%] | pest or weed control at 250 ppm [1] [%] | pest or weed control at 250 ppm [2] [%] | pest or weed control at 250 ppm [3] [%] | pest or weed control at 5000 ppm, 33 µg/cm2 [4] [%] | pest or weed control at 5000 ppm, 33 µg/cm2 [5] [%] | pest or weed control at 5000 ppm, 33 µg/cm2 [6] [%] | pest or weed control at 5000 ppm, 33 µg/cm2 [7] [%] | pest or weed control at 5000 ppm, 33 µg/cm2 (Wild Oats (Avena fatura) [8]) [%] | plant injury at 5000 ppm, 33 µg/cm2 (Soybean [9]) [%] | pest or weed control at 5000 ppm, 33 µg/cm2 [10] [%] | pest or weed control at 250 ppm [11] [%] | inhibition at 2000 ppm (Cotton plants) [%] | pest or weed control at 33 µg/cm2 [12] [%] | pest or weed control at 33 µg/cm2 [13] [%] | pest or weed control at 33 µg/cm2 [14] [%] | pest or weed control at 33 µg/cm2 [15] [%] | pest or weed control at 33 µg/cm2 (Wild Oats (Avena fatura) [16]) [%] | plant injury at 33 µg/cm2 (Soybean [17]) [%] | pest or weed control at 33 µg/cm2 [18] [%] | also measured
Clc1ccc(COC(c2cccnc2)c2ccc(Cl)cc2Cl)c(Cl)c1 (stereo not shown) [Compound 1, 3-pyridyl-2,4-dichlorophenylcarbinol 2,4-dichlorobenzylether] | 85 | 88 | 0 | 4 | 30 | 30 | 20 | 0 | 0 | 20 | 0 | 100 | 55 | 0 | 0 | 0 | 0 | 0 | 0 | 0 | –
OC(c1cccnc1)c1ccc(Cl)cc1Cl (stereo not shown) [Compound 2, 3-pyridyl-2,4-dichlorophenylcarbinol] | 0 | 31 | 25 | 0 | 0 | 0 | 0 | 0 | 0 | 0 | 0 | 100 | 0 | 0 | 0 | 0 | 0 | 0 | 0 | 0 | –
C=CCOC(c1cccnc1)c1ccc(Cl)cc1Cl (stereo not shown) [Compound 3, 3-pyridyl-2,4-dichlorophenylcarbinol allylether] | 25 | 48 | 15 | 0 | 50 | 25 | 60 | 0 | 0 | 33 | 0 | 100 | 0 | 85 | 45 | 98 | 73 | 0 | 0 | 90 | pest or weed control at 250 ppm [19]: 4%
C=C(Cl)COC(c1cccnc1)c1ccc(Cl)cc1Cl (stereo not shown) [Compound 4, 3-pyridyl-2,4-dichlorophenylcarbinol 2-chloroallylether] | 30 | 83 | 27 | 0 | 45 | 58 | 55 | 0 | 0 | 28 | 0 | 100 | 0 | 35 | 30 | 73 | 83 | 33 | 0 | 70 | pest or weed control at 250 ppm [19]: 73%
c1ccc(-c2ccc(COC(c3ccccc3)c3cccnc3)cc2)cc1 (stereo not shown) [Compound 11, 3-pyridylphenylcarbinol 4-phenylbenzylether] | 0 | 47 | 13 | 0 | – | – | – | – | – | – | – | 100 | – | – | – | – | – | – | – | – | pest or weed control at 250 ppm [19]: 5%

Source: US4407806A, “Fungicidal, herbicidal and plant growth regulating pyridyl-containing ethers” (Chevron Research Company, priority 1981, dated 1983)
